How the values were obtained:
[1] = biological target: T1, Sterol O-acyltransferase 2 (Mus musculus, UniProt O88908); assay: Inhibition of ACAT2 in mouse hepatic microsome membranes using [1-14C]oleoyl coenzyme A as substrate incubated for 5 mins; assay type: microsomes, Liver
T1 sequence (O88908 whole entry): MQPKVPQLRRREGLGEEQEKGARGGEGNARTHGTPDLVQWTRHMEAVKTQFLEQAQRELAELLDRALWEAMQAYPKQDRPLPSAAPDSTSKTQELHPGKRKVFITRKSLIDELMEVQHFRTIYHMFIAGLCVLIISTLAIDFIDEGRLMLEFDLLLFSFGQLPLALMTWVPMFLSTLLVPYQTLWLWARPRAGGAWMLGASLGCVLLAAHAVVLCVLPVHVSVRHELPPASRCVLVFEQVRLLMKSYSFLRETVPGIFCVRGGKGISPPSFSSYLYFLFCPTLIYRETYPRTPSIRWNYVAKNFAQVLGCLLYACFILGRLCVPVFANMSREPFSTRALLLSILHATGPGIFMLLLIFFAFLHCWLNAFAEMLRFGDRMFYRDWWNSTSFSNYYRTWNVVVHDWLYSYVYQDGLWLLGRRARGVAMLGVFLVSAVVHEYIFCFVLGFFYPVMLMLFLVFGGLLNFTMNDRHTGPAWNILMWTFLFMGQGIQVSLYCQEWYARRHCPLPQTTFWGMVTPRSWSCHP

[2] = biological target: T2, Sterol O-acyltransferase 2 (Mus musculus) (UniProt O88908); assay: Potency index, ratio of PRD-043 IC50 to test compound IC50 for inhibition ACAT2 in mouse hepatic microsome membranes using [1-14C]oleoyl coenzyme A as substrate incubated for 5 mins; assay type: microsomes
T2 sequence (whole entry): T1 sequence (O88908 whole entry)

[3] = Half life in Sprague-Dawley rat hepatic microsomes at 6 ug/ml by LC-MS method; assay type: ADME, Microsome; details: liver microsomes

Row | Structure (SMILES) | IC50 [1] | Ratio IC50 [2] | half-life at 6 ug/ml [3]
1 | COC(=O)[C@]1(C)[C@@H](OC(C)=O)CC[C@]2(C)[C@H]3[C@@H](O)c4c(cc(-c5cccnc5)oc4=O)O[C@]3(C)[C@@H](OC(=O)c3ccc(C#N)cc3)C[C@H]21 | 0.5 to 1 nM | 10 to 20 | > 9 h
2 | Cc1ccccc1[C@@H]1OC[C@@]2(C)[C@@H]3C[C@H](OC(=O)c4ccc(C#N)cc4)[C@@]4(C)Oc5cc(-c6cccnc6)oc(=O)c5[C@H](O)[C@@H]4[C@@]3(C)CC[C@@H]2O1 | 1 to 10 nM | 10 to 20 | > 9 h
3 | CC(=O)O[C@H]1CC[C@]2(C)[C@H]3[C@@H](O)c4c(cc(-c5cccnc5)oc4=O)O[C@]3(C)[C@@H](OC(=O)c3ccc(C#N)cc3)C[C@H]2[C@]1(C)C(=O)O | < 0.5 nM | < 20 | > 9 h
4 | COc1ccc(CNC(=O)[C@]2(C)[C@@H](OC(C)=O)CC[C@]3(C)[C@H]4[C@@H](O)c5c(cc(-c6cccnc6)oc5=O)O[C@]4(C)[C@@H](OC(=O)c4ccc(C#N)cc4)C[C@H]32)c(OC)c1 | < 0.5 nM | < 20 | > 9 h

Reference: ChEMBL document CHEMBL4418261, “Pyripyropene derivatives having acat2 inhibiting activity and stable to metabolizing enzymes” (2017)
